Test results as given in US20020035131A1, “Regimen and kit for amelioration of premature ejaculation” (Pentech Pharmaceuticals, Inc., priority 1999, published 2002).
Values joined by “and” are separate entries in the source; they are usually repeats but may differ in a detail not shown here. Equal values may be shown once.

Key:
[1] = test system: normally potent male patients suffering from premature ejaculation; experiment: Example 1: incidence of adverse effects; assay type: in vivo, human
Description: All patients in the study group were heterosexual, had no other sexual disorders and were either married or in a stable relationship. The baseline pre-treatment ELT for the group, determined as the mean of measurements from a minimum of two acts of sexual intercourse was 2.2 (range 2-3) as reported by patients prior to commencement of the study using a stop watch operated by the patients.
Each patient was supplied with an ejaculation diary and instructed to record their frequency of coitus, quality of erection and orgasm, and to measure and record their ejaculatory latency time using a stop-watch. The patients were required to attempt coitus on at least two occasions each week.

[2] = test system: normally potent male patients suffering from premature ejaculation; experiment: Example 2 Study Group 2: single blind cross-over, daily paroxetine then continual maintenance vs placebo (ELT, coitus frequency); assay type: in vivo, human
[3] = test system: healthy men with a diagnosis of premature ejaculation (PE); experiment: Example 3: double-blind, randomized, placebo-controlled three-way crossover safety and efficacy study, 20 and 30 mg capsules; assay type: in vivo, human; conditions: for Mean Time in minutes, Reported By Partner / Time in minutes (Range), Reported By Partner / Mean Time in minutes, Reported By Patient / Time in minutes (Range), Reported By Patient / Mean % Change from Baseline, Reported By Partner / Mean % Change from Baseline, Reported By Patient: 6-week treatment period, preliminary data; for Mean Time in minutes, Reported By Partner / Time in minutes (Range), Reported By Partner / Mean Time in minutes, Reported By Patient / Time in minutes (Range), Reported By Patient: male baseline latency ≦ 2 minutes; for Reason for Early Termination: AE (Adverse Experience), patients: crossover of placebo, 20 and 30 mg capsules, not attributed to one treatment
Description: A double-blind, randomized, placebo-controlled, three-way crossover safety and efficacy study was conducted at four clinical sites, A-D. […] The study consisted of a screening period, a baseline period, and three treatment periods, separated by two washout periods. Patients who completed the study participated for about twenty-five weeks. […] Patients who met the selection criteria provided a medical history and submitted to psychosexual and physical examinations at screening. The efficacy of the paroxetine capsules was assessed at each visit by questionnaire. Safety was assessed by physical examinations and adverse experience (AE) reports, if any, were collected throughout the course of the study. A post-treatment physical assessment was performed at the final visit. Qualified patients who were admitted to the study were assigned an identification number in sequential order by enrollment. […] There were about twenty-three patients per sequence. […] Life long history of PE and/or history of PE within the last six months having ≦one minute ejaculation and a perception of lack of control. […] Identically matching placebo capsules were also supplied. Blinding, packaging and labeling was such that each strength of paroxetine capsule and placebo capsule was indistinguishable from one another on the basis of size, appearance, shape, weight, taste, odor finish, and dissolution characteristics. […] A three-week washout (no treatment) period took place between the end of Treatment Period 1 and the start of Treatment Period 2, and between the end of Treatment Period 2 and the start of Treatment Period 3. The following methodology for the study was employed.

dopamine receptors = conditions: unlike sertraline; cited from earlier work
P450 2D6 enzyme = P450 2D6 enzyme (Homo sapiens, UniProt P10635); conditions: cited from earlier work
[4] = Group A-Phase 1: 20 mg acute daily dosing
[5] = Group A-Phase 1: 20 mg acute daily dosing, 61 patients
[6] = Study Group 2-C, week 1: paroxetine 10 mg daily
[7] = Study Group 2-C, week 2: paroxetine 10 mg daily
[8] = Study Group 2-C, week 3: paroxetine 10 mg daily
[9] = Study Group 2-C, week 4: paroxetine 20 mg continual maintenance after three weeks 10 mg daily
[10] = Study Group 2-C, week 5: paroxetine 20 mg continual maintenance after three weeks 10 mg daily
[11] = Study Group 2-C, week 6: paroxetine 20 mg continual maintenance after three weeks 10 mg daily
[12] = Study Group 2-C, week 7: paroxetine 20 mg continual maintenance after three weeks 10 mg daily
[13] = Study Group 2-D, week 11: paroxetine 10 mg daily, first week after placebo phases and washout
[14] = Study Group 2-D, week 12: paroxetine 10 mg daily, second week after placebo phases and washout
[15] = Study Group 2-D, week 13: paroxetine 10 mg daily, third week after placebo phases and washout
[16] = Study Group 2-D, week 14: paroxetine 20 mg continual maintenance after three weeks 10 mg daily
[17] = Study Group 2-D, week 15: paroxetine 20 mg continual maintenance after three weeks 10 mg daily
[18] = Study Group 2-D, week 16: paroxetine 20 mg continual maintenance after three weeks 10 mg daily
[19] = Study Group 2-D, week 17: paroxetine 20 mg continual maintenance after three weeks 10 mg daily

Sequence of P450 2D6 enzyme (P10635 whole entry): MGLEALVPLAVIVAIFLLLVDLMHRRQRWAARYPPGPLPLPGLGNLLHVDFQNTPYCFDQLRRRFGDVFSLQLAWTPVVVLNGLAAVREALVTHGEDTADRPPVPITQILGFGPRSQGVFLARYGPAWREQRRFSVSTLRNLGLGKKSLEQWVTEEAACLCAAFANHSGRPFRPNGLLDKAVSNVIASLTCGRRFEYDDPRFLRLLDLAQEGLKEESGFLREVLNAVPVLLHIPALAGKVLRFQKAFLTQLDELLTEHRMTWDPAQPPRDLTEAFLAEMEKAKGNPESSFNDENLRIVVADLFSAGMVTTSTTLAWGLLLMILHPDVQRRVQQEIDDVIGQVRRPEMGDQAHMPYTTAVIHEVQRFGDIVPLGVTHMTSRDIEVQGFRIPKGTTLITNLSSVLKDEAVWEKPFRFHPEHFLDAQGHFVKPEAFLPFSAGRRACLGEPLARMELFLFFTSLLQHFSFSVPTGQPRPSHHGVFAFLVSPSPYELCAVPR

Structure (SMILES): Fc1ccc([C@@H]2CCNC[C@H]2COc2ccc3c(c2)OCO3)cc1 (relative stereo) [paroxetine, trans-(−)-3-(1,3-benzodioxol-5-yloxy)methyl-4-(4-fluorophenyl) piperidine]
- Adverse effects: Total Patients (fraction) [1, 4]: 12/61
- Adverse effects: Total Patients (percent) [1, 4]: 20%
- Adverse Effect: Drowsiness (patients) [1, 5]: 1
- Adverse Effect: Inhibited orgasm (patients) [1, 5]: 3
- Adverse effect: Anejaculation (patients) [1, 5]: 5
- Adverse effect: Anorexia (patients) [1, 5]: 1
- Adverse effect: Gastrointestinal upset (patients) [1, 5]: 2
- Adverse effect: Reduced Libido (patients) [1, 5]: 3
- patients with inhibition of orgasm despite achieving ejaculation (percent) ([1]; Group A-Phase 1: acute treatment with 20 mg paroxetine/day, 3/61): 5%
- patients with anejaculation (percent) ([1]; Group A-Phase 1: acute treatment with 20 mg paroxetine/day, 5/61): 8%
- Adverse effects: Total Patients (fraction) ([1]; Group A-Phase 2: 20 mg continual maintenance after conversion): None and 0/53
- Adverse effects: Total Patients (fraction) ([1]; Group B: 20 mg continual maintenance only): None and 0/33
- Erectile dysfunction ([1]; all patients of Example 1): not reported by any of the patients
- patients with anejaculation achieving ejaculation with a reduced dose ([1]; anejaculation on 20 mg/day, reduced dose of 5 mg (n=3) and 10 mg (n=1)): 4/5
- Coitus Frequency/wk [2, 6]: 1.7 /wk
- Ejaculatory Latency Time [2, 6]: 1.2 min
- Coitus Frequency/wk [2, 7]: 1.9 /wk
- Ejaculatory Latency Time [2, 7]: 1.8 min
- Coitus Frequency/wk [2, 8]: 2.7 /wk
- Ejaculatory Latency Time [2, 8]: 4.3 min
- Coitus Frequency/wk [2, 9]: 2.3 /wk
- Ejaculatory Latency Time [2, 9]: 4.5 min
- Coitus Frequency/wk [2, 10]: 2.0 /wk
- Ejaculatory Latency Time [2, 10]: 5.2 min
- Coitus Frequency/wk [2, 11]: 2.9 /wk
- Ejaculatory Latency Time [2, 11]: 4.7 min
- Coitus Frequency/wk [2, 12]: 2.4 /wk
- Ejaculatory Latency Time [2, 12]: 5.8 min
- Coitus Frequency/wk [2, 13]: 2.0 /wk
- Ejaculatory Latency Time [2, 13]: 2.2 min
- Coitus Frequency/wk [2, 14]: 2.2 /wk
- Ejaculatory Latency Time [2, 14]: 3.5 min
- Coitus Frequency/wk [2, 15]: 3.1 /wk
- Ejaculatory Latency Time [2, 15]: 3.3 min
- Coitus Frequency/wk [2, 16]: 3.0 /wk
- Ejaculatory Latency Time [2, 16]: 4.2 min
- Coitus Frequency/wk [2, 17]: 2.6 /wk
- Ejaculatory Latency Time [2, 17]: 3.9 min
- Coitus Frequency/wk [2, 18]: 2.5 /wk
- Ejaculatory Latency Time [2, 18]: 4.6 min
- Coitus Frequency/wk [2, 19]: 2.7 /wk
- Ejaculatory Latency Time [2, 19]: 6.1 min
- patients achieving intra-vaginal ejaculation for the first time ([2]; Study Group 2, patients who had never previously achieved it, after two weeks of treatment): all of the five
- Mean Time in minutes, Reported By Partner ([3]; 20 mg capsule daily, n = 26): 6.5 min
- Time in minutes (Range), Reported By Partner ([3]; 20 mg capsule daily, n = 26): (0.4-20) minutes
- Mean Time in minutes, Reported By Patient ([3]; 20 mg capsule daily, n = 28): 6.2 min
- Time in minutes (Range), Reported By Patient ([3]; 20 mg capsule daily, n = 28): (0.5-20) minutes
- Mean % Change from Baseline, Reported By Partner ([3]; 20 mg capsule daily): 225%
- Mean % Change from Baseline, Reported By Patient ([3]; 20 mg capsule daily): 464%
- Mean Time in minutes, Reported By Partner ([3]; 30 mg capsule daily, n = 25): 6.8 min
- Time in minutes (Range), Reported By Partner ([3]; 30 mg capsule daily, n = 25): (0.3-30) minutes
- Mean Time in minutes, Reported By Patient ([3]; 30 mg capsule daily, n = 27): 7 min
- Time in minutes (Range), Reported By Patient ([3]; 30 mg capsule daily, n = 27): (0.25-45) minutes
- Mean % Change from Baseline, Reported By Partner ([3]; 30 mg capsule daily): 240%
- Mean % Change from Baseline, Reported By Patient ([3]; 30 mg capsule daily): 536%
- Reason for Early Termination: AE (Adverse Experience), patients ([3]; Clinical Site A, 10 enrolled): 0
- Reason for Early Termination: AE (Adverse Experience), patients ([3]; Clinical Site B, 9 enrolled): 0
- Reason for Early Termination: AE (Adverse Experience), patients ([3]; Clinical Site C, 15 enrolled): 2
- Reason for Early Termination: AE (Adverse Experience), patients ([3]; Clinical Site D, 19 enrolled): 3
- Reason for Early Termination: AE (Adverse Experience), patients ([3]; TOTALS of sites A-D, 53 enrolled): 5
- affinity for dopamine receptors (dopamine receptors): little affinity
- inhibition of the P450 2D6 enzyme (P450 2D6 enzyme): potent inhibitor
